Reference: patent US20220370416A1, “COMPOUNDS AND METHODS FOR TARGETED DEGRADATION OF KRAS” (Arvinas Operations, Inc., priority 2020, published 2022)

Tests used:
HiBit-KRAS^G12C [1] = molecular target: T1, HiBit-KRAS^G12C (Homo sapiens, UniProt P01116, G12C); assay: HiBit degradation assay in SW1573 HiBit-KRas^G12C cells; format: cell-based; design: expressed in transfected cells; host or cells: SW1573 (clone E6), modified pcDNA3.1 vector, TK promoter; details: 24 hours; for Dmax: SW1573, SW1573 HiBit-KRas^G12C; for DC50: SW1573 HiBit-KRas^G12C
In short: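 HiBit-KRAS G12C degradation was measured after a 24 h compound exposure (titrated 10 μM–20 nM) in engineered SW1573 cells. Lytic HiBit luminescence, expressed relative to DMSO controls, yielded DC50 and Dmax from 4-parameter fits. Concentrations causing ≥50% loss in alamar blue viability were omitted as cytotoxic.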

HiBit-KRAS^G12C [2] = molecular target: T1, HiBit-KRAS^G12C; assay: HiBit degradation assay in MiaPaCa-2 HiBit-KRas^G12C cells; format: cell-based; details: 24 hours; for DC50: MiaPaCa-2 HiBit-KRas^G12C cells; for Dmax: MIA PaCa-2, MiaPaCa-2 HiBit-KRas^G12C cells, maximum degradation
In short: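 DC50 and Dmax come from 4-parameter fits of DMSO-normalized HiBit luminescence after 24 hours' exposure at 37° C to 10 μM–20 nM compound in 0.1% or 0.5% DMSO. Cells: MiaPaCa-2 carrying one endogenously HiBit-tagged KRAS^G12C allele; concentrations causing ≥50% […] viability loss (alamar blue) excluded.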

[3] = 0.1% DMSO, read-out: KRas^G12C-HiBit (SW1573; 0.1% DMSO) Dmax**
[4] = 0.1% DMSO, read-out: KRas^G12C-HIBit (SW1573; 0.1% DMSO) DC50*
[5] = 0.5% DMSO, read-out: KRas^G12C-HiBiT (SW1573; 0.5% DMSO) Dmax**
[6] = 0.1% DMSO, read-out: KRas^G12C-HiBiT (MiaPaCa; 0.1% DMSO) DMax
[7] = 0.5% DMSO, read-out: KRas^G12C-HiBiT (MiaPaCa; 0.5% DMSO) DMax
[8] = read-out: KRas^G12C-HiBiT (SW1573; 0.5% DMSO) IC50***, 0.5% DMSO
[9] = read-out: KRas^G12C-HiBiT (MiaPaCa; 0.5% DMSO) IC50, 0.5% DMSO

T1 sequence (P01116 1-186 isoform P01116-2 G12C limits assumed): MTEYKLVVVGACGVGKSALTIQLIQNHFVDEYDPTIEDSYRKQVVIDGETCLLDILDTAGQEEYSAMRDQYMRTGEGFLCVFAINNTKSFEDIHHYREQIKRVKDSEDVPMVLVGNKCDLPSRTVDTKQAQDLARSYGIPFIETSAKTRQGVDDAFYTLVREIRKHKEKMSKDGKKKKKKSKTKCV

Row | Structure (SMILES) | Dmax (HiBit-KRAS^G12C [1]; [3]) | DC50 (HiBit-KRAS^G12C [1]; [4]) | DC50 (HiBit-KRAS^G12C [2]; read-out: KRas^G12C-HiBiT (MiaPaCa; 0.1% DMSO) IC50, 0.1% DMSO) | Dmax (HiBit-KRAS^G12C [1]; [5]) | Dmax (HiBit-KRAS^G12C [2]; [6]) | Dmax (HiBit-KRAS^G12C [2]; [7]) | DC50 (HiBit-KRAS^G12C [1]; [8]) | DC50 (HiBit-KRAS^G12C [2]; [9])
1 | C=CC(=O)N1CCN(c2nc(O[C@H](C)CN3CCC(C(=O)N[C@H](C(=O)N4C[C@H](O)C[C@H]4C(=O)N[C@@H](C)c4ccc(-c5scnc5C)cc4)C(C)(C)C)CC3)nc3c(F)c(-c4cc(O)cc5ccccc45)c(Cl)cc23)CC1 [Compound 34, 1-[(2R)-2-{[6-chloro-8-fluoro-7-(3-hydroxynaphthalen-1-yl)-4-[4-(prop-2-enoyl)piperazin-1-yl]quinazolin-2-yl]oxy}propyl]-N-[(2S)-1-[(2S,4R)-4-hydroxy-2-{[(1S)-1-[4-(4-methyl-1,3-thiazol-5-yl)phenyl]ethyl]carbamoyl}pyrrolidin-1-yl]-3,3-dimethyl-1-oxobutan-2-yl]piperidine-4-carboxamide] | < 35% | 100 to 1000 nM | > 1000 nM | – | – | – | – | –
2 | C=CC(=O)N1CCN(c2nc(OCCN3CCC(COCC(=O)N[C@H](C(=O)N4C[C@H](O)C[C@H]4C(=O)N[C@@H](C)c4ccc(-c5scnc5C)cc4)C(C)(C)C)CC3)nc3c(F)c(-c4cc(O)cc5ccccc45)c(Cl)cc23)CC1 [Compound 63, (2S,4R)-1-[(2S)-2-(2-{[1-(2-{[6-chloro-8-fluoro-7-(3-hydroxynaphthalen-1-yl)-4-[4-(prop-2-enoyl)piperazin-1-yl]quinazolin-2-yl]oxy}ethyl)piperidin-4-yl]methoxy}acetamido)-3,3-dimethylbutanoyl]-4-hydroxy-N-[(1S)-1-[4-(4-methyl-1,3-thiazol-5-yl)phenyl]ethyl]pyrrolidine-2-carboxamide] | 35 to 70% | 100 to 1000 nM | – | > 70% | 35 to 70% | 35 to 70% | – | –
3 | C=CC(=O)N1C[C@H](C)N(c2nc(OCCN3CCC(COCC(=O)N[C@H](C(=O)N4C[C@H](O)C[C@H]4C(=O)N[C@@H](C)c4ccc(-c5scnc5C)cc4)C(C)(C)C)CC3)nc3c(F)c(-c4cc(O)cc5ccccc45)c(Cl)cc23)C[C@H]1C [Compound 36, (2S,4R)-1-[(2S)-2-[2-({1-[2-({6-chloro-4-[(2S,5R)-2,5-dimethyl-4-(prop-2-enoyl)piperazin-1-yl]-8-fluoro-7-(3-hydroxynaphthalen-1-yl)quinazolin-2-yl}oxy)ethyl]piperidin-4-yl}methoxy)acetamido]-3,3-dimethylbutanoyl]-4-hydroxy-N-[(1S)-1-[4-(4-methyl-1,3-thiazol-5-yl)phenyl]ethyl]pyrrolidine-2-carboxamide] | 35 to 70% | 100 to 1000 nM | – | 35 to 70% | < 35% | 35 to 70% | – | –
4 | C=CC(=O)N1CCN(c2nc(OCCN3CCC(F)(COCC(=O)N[C@H](C(=O)N4C[C@H](O)C[C@H]4C(=O)N[C@@H](C)c4ccc(-c5scnc5C)cc4)C(C)(C)C)CC3)nc3c(F)c(-c4cc(O)cc5ccccc45)c(Cl)cc23)C[C@@H]1CC#N [Compound 150, (2S,4R)-1-[(2S)-2-[2-({1-[2-({6-chloro-4-[(3S)-3-(cyanomethyl)-4-(prop-2-enoyl)piperazin-1-yl]-8-fluoro-7-(3-hydroxynaphthalen-1-yl)quinazolin-2-yl}oxy)ethyl]-4-fluoropiperidin-4-yl}methoxy)acctamido]-3,3-dimethylbutanoyl]-4-hydroxy-N-[(1S)-1-[4-(4-methyl-1,3-thiazol-5-yl)phenyl]ethyl]pyrrolidine-2-carboxamide] | – | – | – | > 70% | – | > 70% | 100 to 1000 nM | > 1000 nM
5 | C=CC(=O)N1CCN(c2nc(OCCN3CCC(C)(COc4cc([C@@H](C(=O)N5C[C@H](O)C[C@H]5C(=O)N[C@@H](C)c5ccc(-c6scnc6C)cc5)C(C)C)on4)CC3)nc3c(F)c(-c4cc(O)cc5ccccc45)c(Cl)cc23)C[C@@H]1CC#N [Compound 132, (2S,4R)-1-[(2S)-2-[3-({1-[2-({6-chloro-4-[(3S)-3-(cyanomethyl)-4-(prop-2-enoyl)piperazin-1-yl]-8-fluoro-7-(3-hydroxynaphthalen-1-yl)quinazolin-2-yl}oxy)ethyl]-4-methylpiperidin-4-yl}methoxy)-1,2-oxazol-5-yl]-3-methylbutanoyl]-4-hydroxy-N-[(1S)-1-[4-(4-methyl-1,3-thiazol-5-yl)phenyl]ethyl]pyrrolidine-2-carboxamide] | – | – | – | – | – | – | > 1000 nM | > 1000 nM
